Patent US5985926A, “Method for inhibiting intracellular viral replication” (Cell Therapeutics, Inc., priority 1997, dated 1999)

What was measured:
[1] = test system: CMV promoter in 293-EBNA cells; assay: AP reporter gene expression from CMV promoter, 293-EBNA cells stably transfected with pCMV.AP; format: cell-based, human cytomegalovirus; human cells; details: for inhibition of AP expression (CMV promoter): in words; for IC50: Homo sapiens, 293-EBNA stably transfected with pCMV.AP (FIG. 6), read-out: IC50, AP reporter gene expression (pCMV.AP)
Description: An assay for measuring the anti-viral activity of the compounds involves testing the abilities of the compounds to inhibit gene expression directed by specific viral promoters in cell lines. Specifically, a plasmid construct, pCMV.AP, using the human cytomegalovirus (CMV) enhancer and promoter to direct the expression of the secreted human placental alkaline phosphatase reporter gene were transformed into a tumor cell line (e.g., 293-EBNA cells). The cultured cells were treated with various concentrations of the compounds. The expression of the alkaline phosphatase (AP) reporter gene in the individual cultures can then be measured by following the change in absorbance at A405 of the cell conditioned media in the presence of a suitable substrate (e.g., ortho-nitrophenol phosphate) (Berger et al., Gene 66:1,1988).
The construction of expression vectors for secreted placental alkaline phosphatase (sPAP) was performed by obtaining a mammalian episomal expression vector pBL3, derived from the plasmids pMEP4 and pCEP4 (Invitrogen Corp). Specifically, a 600 bp Spe I--Kpn I fragment spanning the CMV promoter from pCEP4 and a 9500 bp Xba I--Kpn I vector fragment from pMEP4 were isolated and ligated together to form pBL3. Full length sPAP cDNA was amplified by PCR using the plasmid pGEM4Z/SEAP (ATCC) as template with primers 5'-[…]-3' (SEQ ID NO. 1) and 5'-[…]-3' (SEQ ID NO. 2). The PCR product was then digested with Xba I and Sal I and inserted between the Nhe I site and the Xho I site within the multiple cloning region of pBL3. The resulting plasmid was designated as PCMV.AP.

293-EBNA cells [2] = assay: Viability of 293-EBNA cells, Alamar Blue; format: cell-based, human
Description: (§1) Cell viability was measured by a colorimetric assay that uses Alamar Blue dye (Alamar, Inc.) to report cell proliferation, viability and cytotoxicity. This vital dye indicates cell activity by serving as substrate for mitochrondrial dehydrogenases for the formation of soluble dyes which can be quantitated by determining the difference in absorbance between A570 and A600 using a plate reader.
as §1, with “[…]” for “colorimetric”
This example illustrates that CT2576 suppressed both tat-dependent and TNF-α induced HIV-LTR transcription with an IC50 of approximately 10 μM. Study of the effects of CT2576 on cell toxicity was performed using the Alamar Blue™ dye (Alamar Biosciences) according to the manufacturer's instructions. CT2576 was not toxic to 293-EBNA cells at concentrations up to 35 μM. To show CT2576 can inhibit HIV expression, CT2576 was tested for the ability to block HIV p24 antigen expression in chronically or acutely infected cells. Specifically, CT2576 inhibited the TNF-α and IL-6 induced and the constitutive expression of HIV in the chronically infected U1 cells and in peripheral blood lymphocytes (PBL) freshly infected with a HIV strain from a clinical isolate with an IC50 of approximately 1 μM. Pharmacological inhibition of synthesis of selected PL may therefore be a novel therapeutic approach to suppression of HIV replication.

[3] = test system: PA (phosphatidic acid) formation in tat-transfected and tar-transfected cells; assay: PA mass / myrPA formation in serum-stimulated EB293, 293tat and 293tar cells; format: cell-based, human
Description: Transformed and serum-stimulated cells were measured for total PA mass according to the methods described herein. […] The columns in FIG. 18 represent: (1) EB293 cells plus serum, (2) EB293 cells plus serum plus CT3556 (10 μM.), (3) 293tat cells plus serum, (4) 293tat cells plus serum plus CT3556 (10 μM.), (5) 293tar cells plus serum, and (6) 293tar cells plus serum plus CT3556 (10 μM.).
This procedure begins with those cells that would be normally infected with a virus, such as a retrovirus. However, it is not necessary to utilize a cell line containing a retroviral genome, such as U1 cells. In view of the necessity to utilize containment facilities when using an infected cell line, it is preferable to utilize a macrophage cell line that is not infected. Examples of appropriate macrophage cell lines include, U937, THP1, U1, and P288s (available from standard sources, such as ATCC). The cells are stimulated with a stimulant with or without a candidate drug. Examples of stimulants include 3-5% serum, such as fetal calf serum, or tumor necrosis factor (TNF) (e.g., 20 ng/ml) both of which are standard laboratory reagents. After a time course (within 5 minutes, preferably within 1 minute), the cells are immersed in ice cold methanol to stop any cellular signaling reactions.
One must first quantitatively and qualitatively separate PAs from the other lipids found in serum by a chemical extraction of lipids and high performance liquid chromatography (HPLC) to separate and detect PAs. Chemical extraction can be accomplished, for example, by the method of Bligh et al. (Canadian J. Biochem. Physiol. 37:911-917, 1959) or that of Folch et al. (J. Biol. Chem. 226:497-509, 1957). Briefly, the method of Bligh et al. involves an organic extraction of lipids from biological tissue homogenates or fluids. One volume of sample and three volumes of methanol:chloroform (2:1) are vigorously shaken for 2 min. One volume of chloroform is added and then shaken vigorously for 30 sec. One volume of water is added and then shaken vigorously for 30 sec. The mixture is filtered and the upper aqueous layer is discarded. The lower organic layer contains a mixture of lipid classes. The method of Folch et al. involves the extraction of lipids from biological tissue homogenates or body fluids. One volume of sample plus 20 volumes of chloroform:methanol (2:1) are vigorously shaken for 2 min. The mixture is filtered and an amount of 0.1 N KCl equal to 20% of the extraction mixture volume is added and the mixture is shaken vigorously for 2 min. The aqueous and organic phases are allowed to separate. The upper aqueous layer is discarded. The lower organic layer contains a mixture of lipid classes. Free fatty acids and neutral lipids can be separated from phospholipids by normal phase high performance liquid chromatography (HPLC) by modifying the method of Van Kessel et al. (Biochim et Biophys Acta 486:524-530, 1977). This method involves separation of lipids into their major classes by normal phase (silica) high performance liquid chromatography (HPLC). A 5 micron, 25 cm×0.45 cm silica HPLC column is connected to a binary solvent delivery system followed with a UV detector. The lipid sample is injected on the column and a solvent gradient is run at 1.0 ml/min. […]
Transformed and serum-stimulated cells were measured for total PA mass according to the methods described herein. […]

[4] = test system: HIV-LTR promoter (tat transactivation) in 293-EBNA cells; assay: AP reporter gene expression from HIV-LTR promoter with tat expression vector, 293-EBNA cells; format: cell-based, HIV; human cells; details: 293-EBNA cells, HIV promoter, in words
From the text: The plasmid construct, pHIV.AP, using the human immunodeficiency virus (HIV) long terminal repeat (LTR) promoter (derived from pU3R-III CAT, Sodroski et al., Science 227:171, 1985) to direct the expression of the sPAP reporter gene, was made by replacing the CMV promoter region from pCMV.AP with the HIV-LTR promoter. PHIV.AP was co-transfected with pSV2tat72, an expression vector for the 72 amino acids tat protein from HIV (Frankel and Pabo, Cell 55:1189-1193, 1988), into 293-EBNA cells (Invitrogen). The cultured cells were treated with various concentrations of the compounds. The expression of the alkaline phosphatase (AP) reporter gene in the individual cultures was measured by following change in absorbance at 405 nm of the cell conditioned media in the presence of a suitable substrate (e.g., ortho-nitrophenol phosphate) (Berger et al., Gene 66:1-10, 1988).
We set up a cell-based system with a cell line cotransfected with an expression plasmid using HIV-1-LTR promoter to direct synthesis of AP reporter gene and an expression plasmid to direct synthesis of the first 72 amino acids of tat protein. Plasmid pREP7 (Invitrogen) was converted to pREP7b by deleting 2,040 bp EBNA-1 coding region and by replacing the pBR322 origin of replication (ori) with the pBluescript KS (Stratagene) ori region. The cDNA for secreted placental alkaline phosphatase (AP) was generated by PCR with the primers (5'-[…]-3')(SEQ ID NO. 3) and (5'-[…]-3') (SEQ ID NO. 4)using the plasmid pGEM-4Z/PLAP489 (American Type Culture Collection) as the template. The 2,000 bp Xba I-Sal I fragment obtained was ligated into a Nhe I/Xho I vector derived from pREP7b to generate the plasmid pREP7b.AP. The 44 bp Xba I-Bgl II fragment from plasmid pMEP4 (Invitrogen)and the 36 bp BamH I-Kpn I fragment from pREP7 were ligated into the Xba I-Kpn I vector fragment from pREP7b.AP to generate the plasmid pMCS.AP. The 720 bp Xho I-Hind III fragment encoding the HIV-LTR promoter from the plasmid pU3R-III-CAT (Sodroski et al., Science 227:171-173, 1985) was ligated into the Xho I-Hind III vector fragment of PMCS.AP to generate the plasmid pHIV.AP. The CMV promoter was derived from the 600 bp Spe I-Asp718 I fragment from pCEP4 (Invitrogen). The 360 bp SV40 early promoter fragments were produced from pSV2tat72 (Frankel et al., Cell 55:1189-1193,1988) by PCR using the primers (5'-[…]-3') (SEQ ID NO. 5) and (5'-[…]-3') (SEQ ID NO. 6). The 480 bp phosphoglycerate kinase (PGK) promoter fragment was amplified from human placental genomic DNA (Promega, Madison, Wis.) based on published sequence (Pfeifer et al., Science 246:810-813, 1990) using the primers (5'-[…]-3') (SEQ ID NO. 7) and (5'-[…]-3') (SEQ ID NO. 8). The above fragments were ligated into the Xba I-Asp718 I vector fragment of pHIV.AP to generate pHIV2.AP, pHIV3.AP, pCMV.AP, pSVE.AP and PPGK.AP respectively. The tat-expression plasmid directed by HIV-LTR promoter, pHIV.tat, was generated by inserting the 400 bp EcoRV-HindIII fragment from pHIV.AP into the PvuII-HindIII vector fragment from pSV2tat72 (Frankel et al., Cell 55:1189-1193, 1988).
Transient transfections with various expression plasmids were performed on a human kidney embryonic cell line 293-EBNA (Invitrogen) using the cationic lipid DOTAP (Boehringer Mannheim). The cell culture media were changed 24 hr after transfection into a serum-free medium AIM V (Life Technologies) before addition of compounds or TNF-α (PeproTech) at the appropriate concentrations. AP activity measured by a colorimetric assay (Berger et al., Gene 66:1-10, 1988) was performed 19-24 hr later.

293-EBNA cells [5] = test system: 293-EBNA cells

| SMILES | inhibition of AP expression (CMV promoter) [1] | cytotoxic effect on 293-EBNA cells (Alamar Blue) (293-EBNA cells [2]) | IC50 [1] | inhibition of myrPA formation in stimulated cells ([3]; 10 μM, tat-transfected cells stimulated with serum) | PA mass, 293tar cells plus serum ([3]; CT3556 10 μM (FIG. 18)) | PA mass, 293tat cells plus serum ([3]; CT3556 10 μM (FIG. 18)) | inhibition of AP expression (HIV-LTR promoter) [4] | effect on cell viability / cytotoxicity (293-EBNA cells [5]) |
| --- | --- | --- | --- | --- | --- | --- | --- | --- |
| Cn1cnc2c1c(=O)n(CCCCCCCCCC(O)CNc1ccccc1)c(=O)n2C (stereo not drawn) [CT3528, N-(11-phenylamino-10-hydroxundecyl)-3,7-dimethylxanthine] | No appreciable inhibition of AP expression | no significant cytotoxic effect |  |  |  |  |  |  |
| CCCCCCCCCCNCC(O)CCCCCCCn1c(=O)c2c(ncn2C)n(C)c1=O (stereo not drawn) [CT2571, 1-(9-decylamino-8-hydroxynonyl)-3,7-dimethylxanthine] |  | cytotoxic | 8 µM |  |  |  |  |  |
| CCCCCCCCNCCCCCCCCCCCn1c(=O)c2c(ncn2C)n(C)c1=O [CT3556, 1-(11-N-octylaminoundecyl)-3,7-dimethylxanthine] |  |  |  | inhibited myrPA formation in stimulated cells | significant drop in PA mass | increase in PA was blocked |  |  |
| CCCCCCNCCCC(O)CCCCCCCn1c(=O)c2c(ncn2C)n(C)c1=O (stereo not drawn) [CT2575, 1-(11-hexylamino-8-hydroxyundecyl)-3,7-dimethylxanthine] | inhibit CMV promoter driven expression | no significant cytotoxic effect | 3 µM |  |  |  | inhibit HIV promoter driven expression | minimal cytotoxic effects |
